From patent publication US20140221639A1, “RADIOLABELED NUCLEOSIDE ANALOGUE, AND PREPARATION METHOD AND USE THEREOF” (Institute of Nuclear Energy Research Atomic Energy Council, …, priority 2011, published 2014)
Values joined by “and” are separate entries in the source; they are usually repeats but may differ in a detail not shown here. Identical values can stand only once.

Key:
[1] = system: LL/2 cells; assay: Cellular uptake test (ratio of cell to medium); format: cell-based; conditions: 1, 2, 4 and 8 h
Protocol: (§1) 2×10^6 cells was inoculated in a 15 cm^2 dish containing 14 mL medium supplemented with 10% FBS. […] At specified time points (using I-131 tracer at 1, 2, 4 and 8_h), the cells on the dish was harvested by using a cell scraper. Then, a cell suspension was transferred to a 15 mL centrifuge tube and centrifuged (at 3500 rpm) for 2 min. After centrifugation, 100 μL centrifugate was collected to a preweighed counting tube and directly poured into a maintained medium. Cell pellets were frozen with dry ice, and further collected into another weighed counting tube. […] Accumulation of activity of radioactive trancer in cell in vitro is represented by a radio of cell to medium:
(§2) Uptake experimental results of the two radioactive nucleoside analogues [^131I]IUdR and [^131I]ICdR in cells are as shown in FIGS. 4((a), (b)).

[2] = system: NG4TL4 cells; assay: Cellular uptake test (ratio of cell to medium); format: cell-based; conditions: 1, 2, 4 and 8 h
Protocol: as §1, §2

[3] = system: NG4TL4 sarcoma cells; assay: Study on incorporation in DNA; format: cell-based; conditions: 1 μCi/mL medium, 0.5-8 h
Protocol: DNA was extracted with Genomic DNA Mini Kit (Geneaid Biotech Ltd., Taiwan). NG4TL4 cell lines were harvested and inoculated into a petri dish at 2×10^6. […] At 0.5, 1, 2, 4 and 8 h after incubation, the medium was removed, and the cells was washed two times with ice-cold PBS, and then sheared with trypsin and collected to a centrifuge tube for centrifugation (at […] for 1 min). The supernatant was removed, while 50 μL remaining buffer was left to keep the cells in suspension. 300 μL cell lysis buffer was added to the sample and uniformly mixed, the cells was cultured in a water bath at 60° C. for a sereral minutes till the solution was transparent (the sample was inversed once every 3 min). 2 μL RNAse (25 mg/mL) was added to the sample and uniformly mixed, after 5-min incubation at room temperature, 100 μL protein removal buffer was added to the sample, uniformly mixed immediately, and centrifuged for 3 min at full speed (14000 rpm) after 5-min incubation on ice. The resulting solution was transferred as a suspension to another tube, and isopropanol was added and thoroughly mixed. […] In the test, DNA purity was determined at absorption wavelengths of 260 nm and 280 nm, and the ratio of absorbances (OD260/OD280) was about 1.7.

[4] = Analysis of metabolites in blood and urine through NP-TLC; format: in vivo, FVB/N mice; conditions: NP-TLC EA/EtOH = 5/1
Protocol: Blood samples were obtained by heart puncture, and then centrifuged at 13,000 rpm for 10 min. Then, the supernatant (about 300 μL) was placed in a 1.5 mL centrifuge tube containing equal amount of ethanol, and then centrifuged again to obtain the serum.

[5] = system: NG4TL4-WT tumor; assay: Biodistribution study in tumor-bearing mice; format: in vivo, FVB/N mice; conditions: for Biodistribution Blood / Biodistribution Bone / Biodistribution Brain / Biodistribution Heart / Biodistribution Kidney / Biodistribution Large Intestine / Biodistribution Liver / Biodistribution Lung / Biodistribution Marrow / Biodistribution Muscle / Biodistribution Pancreas / Biodistribution Small Intestine / Biodistribution Spleen / Biodistribution Stomach / Biodistribution Tumor / T/B (aggregation ratio of tumor to blood) / T/M (tumor-muscle aggregation ratio): 80~90 μCi tail vein, FVB/N mice with NG4TL4-WT tumor
Source text: […] Tumor and 13 other tissures (blood, heart, lung, liver, stomach, small intestine, large intestine, spleen, pancreas, kidney, bone, marrow, and muscle) were removed, rinsed, weighed, and determined for radioactivity with a γ scintilation counter. Uptake of the radioactive trancers in the tissues (counts per min) was calibrated against decay, normalizedto sample weight, and expressed as percentages of injected dosage per gram of tissue (% ID/g) and aggregation ratio of tumor to blood.

[6] = mouse, in vivo, iv
[7] = 0.25 h after ^131I-ICdR at tail vein
[8] = 1 h after ^131I-ICdR at tail vein
[9] = 2 h after ^131I-ICdR at tail vein

- ^131I-ICdR (%) in Blood [4, 7]: 63.10 ± 1.17%
- ^131I-ICdR (%) in Urine [4, 7]: 56.49 ± 6.58%
- ^131I-IUdR (%) in Blood [4, 7]: 18.62 ± 2.25%
- ^131I-IUdR (%) in Urine [4, 7]: 3.19 ± 1.03%
- ^131I-I^- (%) in Blood [4, 7]: 18.28 ± 3.39%
- ^131I-I^- (%) in Urine [4, 7]: 40.32 ± 6.18%
- ^131I-compound (unknown) (%) in Blood [4, 7]: 0%
- ^131I-compound (unknown) (%) in Urine [4, 7]: 0%
- ^131I-ICdR (%) in Blood [4, 8]: 72.2% and 72.16 ± 3.66%
- ^131I-ICdR (%) in Urine [4, 8]: 71.0% and 71 + 0.26%
- ^131I-IUdR (%) in Blood [4, 8]: 0%
- ^131I-IUdR (%) in Urine [4, 8]: 0%
- ^131I-I^- (%) in Blood [4, 8]: 14.11 ± 6.15%
- ^131I-I^- (%) in Urine [4, 8]: 26.54 ± 0.34%
- ^131I-compound (unknown) (%) in Blood [4, 8]: 13.73 ± 1.38%
- ^131I-compound (unknown) (%) in Urine [4, 8]: 2.46 ± 0.08%
- ^131I-ICdR (%) in Blood [4, 9]: 67.77 ± 7.33%
- ^131I-ICdR (%) in Urine [4, 9]: 81.1 ± 8.86%
- ^131I-IUdR (%) in Blood [4, 9]: 0%
- ^131I-IUdR (%) in Urine [4, 9]: 0%
- ^131I-I^- (%) in Blood [4, 9]: 19 + 5.90%
- ^131I-I^- (%) in Urine [4, 9]: 15.37 ± 7.67%
- ^131I-compound (unknown) (%) in Blood [4, 9]: 13.23 ± 1.97%
- ^131I-compound (unknown) (%) in Urine [4, 9]: 3.53 ± 1.96%
- Biodistribution Blood ([5]; 1 h): 6.21 ± 1.11 % ID/g
- Biodistribution Bone ([5]; 1 h): 0.96 ± 0.13 % ID/g
- Biodistribution Brain ([5]; 1 h): 0.25 ± 0.03 % ID/g
- Biodistribution Heart ([5]; 1 h): 1.45 + 0.14 % ID/g
- Biodistribution Kidney ([5]; 1 h): 3.96 ± 0.39 % ID/g
- Biodistribution Large Intestine ([5]; 1 h): 2.92 ± 0.18 % ID/g
- Biodistribution Liver ([5]; 1 h): 2.05 ± 0.20 % ID/g
- Biodistribution Lung ([5]; 1 h): 3.52 ± 0.48 % ID/g
- Biodistribution Marrow ([5]; 1 h): 3.29 ± 0.08 % ID/g
- Biodistribution Muscle ([5]; 1 h): 0.85 ± 0.04 % ID/g
- Biodistribution Pancreas ([5]; 1 h): 2.81 ± 0.42 % ID/g
- Biodistribution Small Intestine ([5]; 1 h): 4.79 ± 0.41 % ID/g
- Biodistribution Spleen ([5]; 1 h): 4.03 ± 0.55 % ID/g
- Biodistribution Stomach ([5]; 1 h): 17.07 + % ID/g
- Biodistribution Tumor ([5]; 1 h): 3.46 ± 0.07 % ID/g
- T/B (aggregation ratio of tumor to blood) ([5]; 1 h): 0.56
- T/M (tumor-muscle aggregation ratio) ([5]; 1 h): 4.07
- Biodistribution Blood ([5]; 2 h): 3.76 ± 0.13 % ID/g
- Biodistribution Bone ([5]; 2 h): 0.71 ± 0.19 % ID/g
- Biodistribution Brain ([5]; 2 h): 0.15 ± 0.03 % ID/g
- Biodistribution Heart ([5]; 2 h): 1.14 + 0.01 % ID/g
- Biodistribution Kidney ([5]; 2 h): 2.36 ± 0.06 % ID/g
- Biodistribution Large Intestine ([5]; 2 h): 2.54 ± 0.33 % ID/g
- Biodistribution Liver ([5]; 2 h): 1.43 ± 0.09 % ID/g
- Biodistribution Lung ([5]; 2 h): 2.72 ± 0.17 % ID/g
- Biodistribution Marrow ([5]; 2 h): 3.58 ± 1.12 % ID/g
- Biodistribution Muscle ([5]; 2 h): 0.61 ± 0.05 % ID/g
- Biodistribution Pancreas ([5]; 2 h): 2.08 ± 0.08 % ID/g
- Biodistribution Small Intestine ([5]; 2 h): 4.79 ± 0.45 % ID/g
- Biodistribution Spleen ([5]; 2 h): 3.07 ± 0.09 % ID/g
- Biodistribution Stomach ([5]; 2 h): 14.99 ± 4.04 % ID/g
- Biodistribution Tumor ([5]; 2 h): 3.78 ± 0.07 % ID/g
- T/B (aggregation ratio of tumor to blood) ([5]; 2 h): 1.00
- T/M (tumor-muscle aggregation ratio) ([5]; 2 h): 6.16
- Biodistribution Blood ([5]; 4 h): 3.40 ± 0.15 % ID/g
- Biodistribution Bone ([5]; 4 h): 0.77 ± 0.07 % ID/g
- Biodistribution Brain ([5]; 4 h): 0.12 ± 0.02 % ID/g
- Biodistribution Heart ([5]; 4 h): 0.84 + 0.07 % ID/g
- Biodistribution Kidney ([5]; 4 h): 2.07 ± 0.10 % ID/g
- Biodistribution Large Intestine ([5]; 4 h): 2.88 ± 0.21 % ID/g
- Biodistribution Liver ([5]; 4 h): 0.85 ± 0.01 % ID/g
- Biodistribution Lung ([5]; 4 h): 2.28 ± 0.12 % ID/g
- Biodistribution Marrow ([5]; 4 h): 3.82 ± 0.54 % ID/g
- Biodistribution Muscle ([5]; 4 h): 0.51 ± 0.04 % ID/g
- Biodistribution Pancreas ([5]; 4 h): 2.09 ± 0.13 % ID/g
- Biodistribution Small Intestine ([5]; 4 h): 5.27 ± 0.39 % ID/g
- Biodistribution Spleen ([5]; 4 h): 2.88 ± 0.13 % ID/g
- Biodistribution Stomach ([5]; 4 h): 17.68 ± 0.74 % ID/g
- Biodistribution Tumor ([5]; 4 h): 4.85 ± 0.17 % ID/g
- T/B (aggregation ratio of tumor to blood) ([5]; 4 h): 1.43
- T/M (tumor-muscle aggregation ratio) ([5]; 4 h): 9.59
- Biodistribution Blood ([5]; 8 h): 0.77 ± 0.10 % ID/g
- Biodistribution Bone ([5]; 8 h): 0.11 ± 0.02 % ID/g
- Biodistribution Brain ([5]; 8 h): 0.01 ± 0.00 % ID/g
- Biodistribution Heart ([5]; 8 h): 0.19 + 0.03 % ID/g
- Biodistribution Kidney ([5]; 8 h): 0.75 ± 0.02 % ID/g
- Biodistribution Large Intestine ([5]; 8 h): 1.33 ± 0.06 % ID/g
- Biodistribution Liver ([5]; 8 h): 0.38 ± 0.02 % ID/g
- Biodistribution Lung ([5]; 8 h): 0.69 ± 0.16 % ID/g
- Biodistribution Marrow ([5]; 8 h): 2.31 ± 0.10 % ID/g
- Biodistribution Muscle ([5]; 8 h): 0.09 ± 0.01 % ID/g
- Biodistribution Pancreas ([5]; 8 h): 0.38 ± 0.05 % ID/g
- Biodistribution Small Intestine ([5]; 8 h): 2.06 ± 0.13 % ID/g
- Biodistribution Spleen ([5]; 8 h): 2.77 ± 0.09 % ID/g
- Biodistribution Stomach ([5]; 8 h): 2.85 ± 0.61 % ID/g
- Biodistribution Tumor ([5]; 8 h): 2.32 ± 0.27 % ID/g
- T/B (aggregation ratio of tumor to blood) ([5]; 8 h): 3.02
- T/M (tumor-muscle aggregation ratio) ([5]; 8 h): 25.77
- excretion of drug and metabolites ([5]; mice): mainly through the urinary system
- CL (total body clearance) [6]: 3.90 ± 0.59 mL/h
SMILES: Nc1nc(=O)n([C@H]2C[C@H](O)[C@@H](CO)O2)cc1[131I] [^131I-ICdR]
- uptake value over time [1]: continuously increased with time
- uptake value over time [2]: continuously increased with time
- incorporation into cells / radioactive accumulation in DNA with time [3]: linearly incorporated
- accumulation in organs (biodistribution and imaging) ([5]; tumor-bearing mice): obviously accumulated in organs that rapidly proliferates
